Assay results taken from patent publication US8889627B2 (Teva Pharmaceutical Industries, Ltd., priority 2011, dated 2014).

Legend:
MOG-induced EAE mice = assay: Efficacy of laquinimod alone or in combination with fingolimod in MOG-induced EAE; type: in vivo, mice (C57BL/6); details: for activity according to GMS compared to vehicle control: oral QD; for Duration / Onset / Mortality / GMS value / Incidence: Day 1 to 30; for Mortality: dead or moribund/total mice; for GMS value: group mean clinical score (0-6); for Incidence: sick/total mice
S1PR4 = target: T1, S1PR4 (Homo sapiens, UniProt O95977); details: cited from earlier work
T1 sequence (O95977 1-384): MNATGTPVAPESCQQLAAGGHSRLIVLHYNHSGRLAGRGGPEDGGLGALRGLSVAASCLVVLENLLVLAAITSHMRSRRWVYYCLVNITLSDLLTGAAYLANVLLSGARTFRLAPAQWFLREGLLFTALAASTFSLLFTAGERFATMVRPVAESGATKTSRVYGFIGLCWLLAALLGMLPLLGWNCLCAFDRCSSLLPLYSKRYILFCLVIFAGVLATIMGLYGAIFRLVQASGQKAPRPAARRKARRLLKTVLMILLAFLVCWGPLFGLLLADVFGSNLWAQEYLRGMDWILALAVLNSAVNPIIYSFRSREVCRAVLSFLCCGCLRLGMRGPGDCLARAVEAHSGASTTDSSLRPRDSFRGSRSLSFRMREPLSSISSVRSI

S1PR5 = S1PR5 (Homo sapiens, UniProt Q9H228); details: cited from earlier work
S1PR5, sequence (Q9H228 whole entry, species assumed): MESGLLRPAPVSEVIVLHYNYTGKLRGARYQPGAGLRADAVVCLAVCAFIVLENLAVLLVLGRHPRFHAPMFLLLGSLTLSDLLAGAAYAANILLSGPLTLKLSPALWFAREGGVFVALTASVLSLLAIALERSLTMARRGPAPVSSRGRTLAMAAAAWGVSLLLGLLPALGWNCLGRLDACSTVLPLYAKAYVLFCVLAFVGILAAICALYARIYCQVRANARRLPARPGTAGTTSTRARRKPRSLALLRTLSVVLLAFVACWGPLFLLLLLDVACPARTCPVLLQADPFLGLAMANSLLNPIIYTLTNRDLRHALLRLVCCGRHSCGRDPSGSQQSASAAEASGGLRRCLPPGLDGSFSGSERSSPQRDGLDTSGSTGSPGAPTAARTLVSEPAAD

SMILES: CCCCCCCCc1ccc(CCC(N)(CO)CO)cc1 [Fingolimod, 2-amino-2-[2-(4-octylphenyl)ethyl]propane-1,3-diol]
- activity according to GMS compared to vehicle control (MOG-induced EAE mice; fingolimod 0.3 mg/kg (sub optimal dose)): 56.3%
- effectiveness against EAE (in words) (MOG-induced EAE mice; fingolimod 0.3 mg/kg alone): moderately effective
- Duration (MOG-induced EAE mice; fingolimod 0.3 mg/kg oral QD): 15.0 ± 6.7 days
- Onset (MOG-induced EAE mice; fingolimod 0.3 mg/kg oral QD): 16.0 ± 6.7 days
- Mortality (MOG-induced EAE mice; fingolimod 0.3 mg/kg oral QD): 0/15
- GMS value (MOG-induced EAE mice; fingolimod 0.3 mg/kg oral QD): 1.4 ± 0.8
- Incidence (MOG-induced EAE mice; fingolimod 0.3 mg/kg oral QD): 13/15
- activity according to GMS compared to vehicle control (MOG-induced EAE mice; fingolimod 1 mg/kg (optimal dose)): 81.3%
- Duration (MOG-induced EAE mice; fingolimod 1 mg/kg oral QD): 7.59 ± 9.1 days
- Onset (MOG-induced EAE mice; fingolimod 1 mg/kg oral QD): 21.7 ± 9.3 days
- Mortality (MOG-induced EAE mice; fingolimod 1 mg/kg oral QD): 0/15
- GMS value (MOG-induced EAE mice; fingolimod 1 mg/kg oral QD): 0.6 ± 0.8
- Incidence (MOG-induced EAE mice; fingolimod 1 mg/kg oral QD): 8/15

SMILES: CCCCCCCCc1ccc(CCC(N)(CO)COP(=O)(O)O)cc1 (stereo not shown) [Fingolimod-phosphate]
- binding affinity (in words) (S1PR4): high affinity
- binding affinity (in words) (S1PR5): high affinity

SMILES: CCN(C(=O)c1c(O)c2c(Cl)cccc2n(C)c1=O)c1ccccc1 [Laquinimod]
- activity according to GMS compared to vehicle control (MOG-induced EAE mice; laquinimod 10 mg/kg (sub optimal dose)): 53.1%
- effectiveness against EAE (in words) (MOG-induced EAE mice; laquinimod 10 mg/kg alone): moderately effective
- Duration (MOG-induced EAE mice; laquinimod 10 mg/kg oral QD): 14.1 ± 6.4 days
- Onset (MOG-induced EAE mice; laquinimod 10 mg/kg oral QD): 17.1 ± 6.3 days
- Mortality (MOG-induced EAE mice; laquinimod 10 mg/kg oral QD): 0/15
- GMS value (MOG-induced EAE mice; laquinimod 10 mg/kg oral QD): 1.5 ± 0.8
- Incidence (MOG-induced EAE mice; laquinimod 10 mg/kg oral QD): 13/15
- activity according to GMS compared to vehicle control (MOG-induced EAE mice; laquinimod 25 mg/kg (optimal dose)): 81.1%
- Duration (MOG-induced EAE mice; laquinimod 25 mg/kg oral QD): 8.1 ± 9.0 days
- Onset (MOG-induced EAE mice; laquinimod 25 mg/kg oral QD): 22.9 ± 9.0 days
- Mortality (MOG-induced EAE mice; laquinimod 25 mg/kg oral QD): 0/15
- GMS value (MOG-induced EAE mice; laquinimod 25 mg/kg oral QD): 0.6 ± 0.8
- Incidence (MOG-induced EAE mice; laquinimod 25 mg/kg oral QD): 7/15
